# Experimental data: US20240287082A1, “NEW BENZODIAZEPINE DERIVATIVES AS GABA A GAMMA1 PAM” (Hoffmann-La Roche Inc., priority 2021, published 2024)
# pKi: −log10 of the molar value. Like-named read-outs stand apart in the source and are kept apart here.
# Experiments:
# [1] = target: human GABAA α1β2γ1 receptor (Homo sapiens (Human), UniProt P14867+Q8N1C3); assay: Radioligand binding assay, competition for [3H]RO7239181, γ1-containing GABAA subtype α1β2γ1; conditions: membranes of HEK293F cells, [3H]RO7239181 20-30 nM, mean of two determinations
# Protocol: The affinity of compounds at GABAA γ1 subunit-containing receptors was measured by competition for [^3H]RO7239181 (67.3 Ci/mmol; Roche) binding to membranes from HEK293F cells (ThermoFisher R^79007) expressing human (transiently transfected) receptors of composition α5β2γ1, α2β2γ1, α1β2γ1.
# Harvested pellets from HEK293F cells expressing the different GABAA receptor subtypes were resuspended in Mannitol Buffer pH 7.2-7.4 (Mannitol 0.29M, Triethylamine 10 mM, Acetic acid 10 mM, EDTA 1 mM plus protease inhibitors (20 tablets Complete, Roche Diagnostics Cat. No. 05 056 489 001 per liter)), washed two times and then resuspended at 1:10 to 1:15 dilution in the same buffer. Cell disruption was performed by stirring the suspension in a Parr vessel #4637 at 435 psi for 15 minutes, and then the suspensions were centrifuged at 1000×g for 15 minutes at 4° C. (Beckman Avanti J-HC: rotor JS-4.2). The supernatant (S1) was transferred in a 21 Schott flask and the pellet (P1) was resuspended with Mannitol Buffer up to 175 ml. The resuspended pellet was transferred into a 250 ml Corning centrifugal beaker and centrifuged at 1500×g for 10 minutes at 4° C. (Beckman Avanti J-HC: rotor JS-4.2). The supernatant (S1) was then transferred in the 21 Schott flask and the pellet was discarded. The supernatants (S1) were centrifuged in 500 ml Beckman polypropylene centrifugal beaker at 15 000×g for 30 minutes at 4° C. (Beckman Avanti J-20 XP: rotor JLA-10.500). The pellet (P2) was resuspended with Mannitol Buffer 1:1 and frozen at −80° C. The supernatant (S2) was centrifuged in 100 ml Beckman polypropylene centrifugal tubes at 48000×g for 50 minutes at 4° C. (Beckman Avanti J-20 XP: rotor JA-18). The supernatant (S3) was discarded and the pellet (P3) was resuspended with 1:1 Mannitol Buffer. The P2 and P3 protein concentration was determined with the BIORAD Standard assay method with bovine serum albumin as standard and measured on the NANO-Drop 1000. The membrane suspension was aliquots (500 μl per tube) and stored at −80° C. until required.
# Membrane homogenates were resuspended and polytronised (Polytron PT1200E Kinematica AG) in Potassium Phosphate 10 mM, KCl 100 mM binding buffer at pH 7.4 to a final assay concentration determined with a previous experiment.
# Assays were incubated to equilibrium for 1 hour at 4° C. and then, membranes were filtered onto unifilter (96-well white microplate with bonded GF/C filters preincubated 20-50 minutes in 0.3% Polyethylenimine) with a Filtermate 196 harvester (Packard BioScience) and washed 4 times with cold Potassium Phosphate 10 mM pH 7.4, KCl 100 mM binding buffer. After anhydrousing, filter-retained radioactivity was detected by liquid scintillation counting. Ki values were calculated using Excel-Fit (Microsoft) and are the means of two determinations.
# [2] = target: human GABAA α2β2γ1 receptor (Homo sapiens (Human), UniProt P47869+Q8N1C3); assay: Radioligand binding assay, competition for [3H]RO7239181, γ1-containing GABAA subtype α2β2γ1; conditions: for γ2/γ1 Selectivity Ratio: Ki α1β3γ2 (nM)/Ki α2β2γ1 (nM); for LogSel: Log[Ki α1β3γ2 (nM)/Ki α2β2γ1 (nM)]
# [3] = target: human GABAA α1β3γ2 receptor (Homo sapiens (Human), UniProt P14867+P18507); assay: Radioligand binding assay, competition for [3H]Flumazenil, γ2-containing GABAA subtype α1β3γ2
structure (smiles),measurement,setting,value
"CNC(=O)c1cn2c(nc1=O)[C@H](C)N=C(c1c(F)cccc1F)c1c-2ccc(C(F)(F)F)c1Cl [Example 27, (5S)-8-chloro-7-(2,6-difluorophenyl)-N,5-dimethyl-3-oxo-9-(trifluoromethyl)-5H-pyrimido[1,2-a][1,4]benzodiazepine-2-carboxamide]",pKi,[1],7.17
same,γ2/γ1 Selectivity Ratio,[2],292.9
same,LogSel,[2],2.47
same,pKi,"[2]; Table 2, membranes of HEK293F cells, [3H]RO7239181, read-out: Ki h-GABAA α2β2γ1",7.51
same,pKi,"[2]; membranes of HEK293F cells, [3H]RO7239181 20-30 nM, mean of two determinations, read-out: Ki h-GABAA α2β2γ1",7.51
same,pKi,"[3]; HEK293F cell membranes, [3H]Flumazenil 1 nM, mean of two determinations, read-out: Ki h-GABAA α1β3γ2",5.05
"O=c1ccn2c(n1)CN=C(c1ccccc1F)c1c-2ccc(Cl)c1Cl [Example 1, 8,9-dichloro-7-(2-fluorophenyl)-5H-pyrimido[1,2-a][1,4]benzodiazepin-3-one]",pKi,[1],7.20
same,pKi,[2],7.24
same,γ2/γ1 Selectivity Ratio,[2],12.4
same,LogSel,[2],1.09
same,pKi,"[2]; read-out: Ki h-GABAA α2β2γ1, Table 2, membranes of HEK293F cells, [3H]RO7239181",7.24
same,pKi,[3],6.14
